Measurements: ChEMBL document CHEMBL5223112, “Design, synthesis, and structure-activity relationship of novel RIPK2 inhibitors” (Bioorg Med Chem Lett, 2022)

How the values were obtained:
[1] = target: Receptor-interacting serine/threonine-protein kinase 2 (Homo sapiens, UniProt O43353); test: Binding affinity to RIPK2 (unknown origin) assessed as dissociation constant by kinomescan assay
[2] = Metabolic stability in human liver microsomes assessed as half life; type: ADME
[3] = Metabolic stability in rat liver microsomes assessed as half life; type: ADME
[4] = Metabolic stability in mouse liver microsomes assessed as half life; type: ADME
[5] = Metabolic stability in dog liver microsomes assessed as half life; type: ADME, Canis lupus familiaris
[6] = Metabolic stability in monkey liver microsomes assessed as half life; type: ADME, Macaca mulatta; conditions: rhesus monkey
[7] = Metabolic stability in human liver microsomes assessed as intrinsic clearance; type: ADME; conditions: read-out: CLH
[8] = Metabolic stability in rat liver microsomes assessed as intrinsic clearance; type: ADME; conditions: read-out: CLH
[9] = Metabolic stability in mouse liver microsomes assessed as intrinsic clearance; type: ADME; conditions: read-out: CLH
[10] = Metabolic stability in dog liver microsomes assessed as intrinsic clearance; type: ADME, Canis lupus familiaris; conditions: read-out: CLH
[11] = Metabolic stability in monkey liver microsomes assessed as intrinsic clearance; type: ADME, Macaca mulatta; conditions: rhesus monkey, read-out: CLH
CYP1A2 = target: T1, CYP1A2 (Homo sapiens, UniProt P05177); test: Inhibition of CYP1A2 (unknown origin) at 10 uM relative to control; type: ADME
T1 sequence (P05177 whole entry): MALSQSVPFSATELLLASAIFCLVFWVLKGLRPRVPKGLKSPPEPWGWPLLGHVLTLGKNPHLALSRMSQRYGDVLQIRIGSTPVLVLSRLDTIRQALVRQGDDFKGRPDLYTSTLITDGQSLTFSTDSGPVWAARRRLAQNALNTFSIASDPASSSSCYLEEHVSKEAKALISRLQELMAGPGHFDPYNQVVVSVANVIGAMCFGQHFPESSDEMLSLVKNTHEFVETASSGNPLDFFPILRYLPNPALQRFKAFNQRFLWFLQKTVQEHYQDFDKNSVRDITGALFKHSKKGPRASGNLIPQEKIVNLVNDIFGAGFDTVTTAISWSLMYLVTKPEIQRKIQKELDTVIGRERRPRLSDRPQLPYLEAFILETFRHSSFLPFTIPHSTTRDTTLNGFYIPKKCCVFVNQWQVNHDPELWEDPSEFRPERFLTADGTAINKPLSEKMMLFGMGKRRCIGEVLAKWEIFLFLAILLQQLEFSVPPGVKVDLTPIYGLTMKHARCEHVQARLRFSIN

CYP2C9 = CYP2C9 (Homo sapiens, UniProt P11712); test: Inhibition of CYP2C9 (unknown origin) at 10 uM relative to control; type: ADME
CYP2C9, sequence (P11712 whole entry): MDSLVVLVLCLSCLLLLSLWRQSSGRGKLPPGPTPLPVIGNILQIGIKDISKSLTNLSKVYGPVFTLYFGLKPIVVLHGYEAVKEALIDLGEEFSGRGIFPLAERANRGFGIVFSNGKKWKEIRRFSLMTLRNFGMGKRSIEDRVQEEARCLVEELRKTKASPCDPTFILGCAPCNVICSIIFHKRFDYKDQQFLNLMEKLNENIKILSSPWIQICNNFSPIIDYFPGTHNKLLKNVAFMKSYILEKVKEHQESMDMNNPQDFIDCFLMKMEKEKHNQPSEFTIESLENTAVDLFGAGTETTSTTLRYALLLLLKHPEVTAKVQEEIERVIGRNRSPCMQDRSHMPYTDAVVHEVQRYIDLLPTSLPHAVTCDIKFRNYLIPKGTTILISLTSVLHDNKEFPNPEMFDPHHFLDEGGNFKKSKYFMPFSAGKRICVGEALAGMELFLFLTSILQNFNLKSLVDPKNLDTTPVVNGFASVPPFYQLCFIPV

CYP2C19 = CYP2C19 (Homo sapiens, UniProt P33261); test: Inhibition of CYP2C19 (unknown origin) at 10 uM relative to control; type: ADME
CYP2C19, sequence (P33261 whole entry): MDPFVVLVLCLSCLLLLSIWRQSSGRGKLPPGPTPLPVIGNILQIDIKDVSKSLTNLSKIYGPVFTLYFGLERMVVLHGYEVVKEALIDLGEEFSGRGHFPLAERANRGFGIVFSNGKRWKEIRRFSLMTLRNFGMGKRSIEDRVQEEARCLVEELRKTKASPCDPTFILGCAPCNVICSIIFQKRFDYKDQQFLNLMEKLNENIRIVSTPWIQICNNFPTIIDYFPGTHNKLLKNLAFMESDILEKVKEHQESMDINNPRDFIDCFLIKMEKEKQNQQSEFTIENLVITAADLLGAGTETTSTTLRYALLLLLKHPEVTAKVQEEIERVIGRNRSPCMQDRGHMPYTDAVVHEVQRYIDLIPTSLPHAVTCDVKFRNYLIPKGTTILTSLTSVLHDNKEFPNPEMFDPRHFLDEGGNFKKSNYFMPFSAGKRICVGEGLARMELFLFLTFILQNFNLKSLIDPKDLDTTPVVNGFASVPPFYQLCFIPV

CYP2D6 = CYP2D6 (Homo sapiens, UniProt P10635); test: Inhibition of CYP2D6 (unknown origin) at 10 uM relative to control; type: ADME
CYP2D6, sequence (P10635 whole entry): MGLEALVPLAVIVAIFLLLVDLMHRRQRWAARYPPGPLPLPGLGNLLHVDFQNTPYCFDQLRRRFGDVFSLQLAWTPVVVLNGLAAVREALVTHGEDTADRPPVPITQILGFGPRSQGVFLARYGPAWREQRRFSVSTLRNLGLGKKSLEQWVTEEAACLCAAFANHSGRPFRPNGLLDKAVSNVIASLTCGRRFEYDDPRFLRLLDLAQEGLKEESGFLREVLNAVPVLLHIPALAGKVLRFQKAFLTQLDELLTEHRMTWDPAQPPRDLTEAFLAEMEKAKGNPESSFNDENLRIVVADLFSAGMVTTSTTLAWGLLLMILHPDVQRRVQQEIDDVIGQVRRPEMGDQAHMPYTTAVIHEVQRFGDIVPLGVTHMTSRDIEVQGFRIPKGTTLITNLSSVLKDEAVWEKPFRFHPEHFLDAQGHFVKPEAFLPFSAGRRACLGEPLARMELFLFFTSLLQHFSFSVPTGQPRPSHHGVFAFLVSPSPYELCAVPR

CYP3A4 [12] = target: T2, CYP3A4 (Homo sapiens, UniProt P08684); test: Inhibition of CYP3A4 (unknown origin) at 10 uM using midazolam as substrate relative to control; type: ADME; conditions: probe midazolam
T2 sequence (P08684 whole entry): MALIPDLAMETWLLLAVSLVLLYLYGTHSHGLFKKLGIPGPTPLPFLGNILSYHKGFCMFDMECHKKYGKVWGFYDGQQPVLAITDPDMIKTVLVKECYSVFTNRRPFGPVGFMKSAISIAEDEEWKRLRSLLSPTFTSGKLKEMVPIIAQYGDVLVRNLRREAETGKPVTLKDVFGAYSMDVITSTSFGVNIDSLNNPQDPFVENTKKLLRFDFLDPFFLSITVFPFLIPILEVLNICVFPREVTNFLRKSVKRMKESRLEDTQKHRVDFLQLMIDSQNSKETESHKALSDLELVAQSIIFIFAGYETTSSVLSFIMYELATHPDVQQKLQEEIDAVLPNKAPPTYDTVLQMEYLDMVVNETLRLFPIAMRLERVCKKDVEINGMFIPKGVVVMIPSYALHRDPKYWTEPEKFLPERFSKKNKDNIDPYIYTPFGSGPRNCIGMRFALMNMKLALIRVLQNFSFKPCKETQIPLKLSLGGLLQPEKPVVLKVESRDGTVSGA

CYP3A4 [13] = target: T2, CYP3A4; test: Inhibition of CYP3A4 (unknown origin) at 10 uM using testosterone as substrate relative to control; type: ADME; conditions: probe testosterone
[14] = target: Voltage-gated inwardly rectifying potassium channel KCNH2 (Homo sapiens, UniProt Q12809); test: Inhibition of hERG; type: toxicity
Voltage-gated inwardly rectifying potassium channel KCNH2, sequence (Q12809 whole entry): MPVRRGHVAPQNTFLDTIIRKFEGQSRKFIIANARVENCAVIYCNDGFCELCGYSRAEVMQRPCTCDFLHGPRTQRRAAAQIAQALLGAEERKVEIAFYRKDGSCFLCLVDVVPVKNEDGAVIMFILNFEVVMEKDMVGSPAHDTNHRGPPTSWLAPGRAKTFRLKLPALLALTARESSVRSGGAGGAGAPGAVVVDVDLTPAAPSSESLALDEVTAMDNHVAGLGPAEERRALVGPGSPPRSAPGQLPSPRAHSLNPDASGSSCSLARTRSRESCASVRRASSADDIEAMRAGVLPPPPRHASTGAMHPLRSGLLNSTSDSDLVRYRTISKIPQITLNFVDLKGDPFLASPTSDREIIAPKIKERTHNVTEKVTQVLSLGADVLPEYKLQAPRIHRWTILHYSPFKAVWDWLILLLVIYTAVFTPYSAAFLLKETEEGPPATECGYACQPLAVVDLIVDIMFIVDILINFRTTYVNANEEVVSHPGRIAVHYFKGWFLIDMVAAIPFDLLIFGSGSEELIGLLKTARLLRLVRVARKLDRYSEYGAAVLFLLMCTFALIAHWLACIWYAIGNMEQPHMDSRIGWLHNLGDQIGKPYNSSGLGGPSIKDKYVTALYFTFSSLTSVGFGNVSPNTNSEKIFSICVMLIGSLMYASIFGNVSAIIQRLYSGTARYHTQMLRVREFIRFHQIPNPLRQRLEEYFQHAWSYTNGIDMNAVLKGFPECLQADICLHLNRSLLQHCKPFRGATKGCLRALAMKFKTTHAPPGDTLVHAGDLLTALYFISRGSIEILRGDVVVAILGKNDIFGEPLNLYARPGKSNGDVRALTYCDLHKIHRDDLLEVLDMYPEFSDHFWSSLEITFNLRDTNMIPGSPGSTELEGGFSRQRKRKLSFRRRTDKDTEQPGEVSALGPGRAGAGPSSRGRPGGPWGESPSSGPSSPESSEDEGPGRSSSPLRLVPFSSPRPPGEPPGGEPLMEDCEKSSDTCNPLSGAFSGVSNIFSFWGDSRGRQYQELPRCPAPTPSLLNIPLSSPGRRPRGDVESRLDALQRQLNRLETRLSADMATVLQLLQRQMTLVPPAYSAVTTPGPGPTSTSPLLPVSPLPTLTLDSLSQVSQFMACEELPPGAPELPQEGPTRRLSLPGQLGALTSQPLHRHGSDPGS

THP-1 = test: Antiinflammatory activity in MDP-stimulated IL-8 production in human THP-1 cells pretreated for 2 hrs followed by MDP stimulation for 6 hrs; type: functional, cell-based
[15] = target: T3, Receptor-interacting serine/threonine-protein kinase 1 (Homo sapiens, UniProt Q13546); test: Binding affinity to RIPK1 (unknown origin) assessed as dissociation constant by kinomescan assay
T3 sequence (Q13546 whole entry): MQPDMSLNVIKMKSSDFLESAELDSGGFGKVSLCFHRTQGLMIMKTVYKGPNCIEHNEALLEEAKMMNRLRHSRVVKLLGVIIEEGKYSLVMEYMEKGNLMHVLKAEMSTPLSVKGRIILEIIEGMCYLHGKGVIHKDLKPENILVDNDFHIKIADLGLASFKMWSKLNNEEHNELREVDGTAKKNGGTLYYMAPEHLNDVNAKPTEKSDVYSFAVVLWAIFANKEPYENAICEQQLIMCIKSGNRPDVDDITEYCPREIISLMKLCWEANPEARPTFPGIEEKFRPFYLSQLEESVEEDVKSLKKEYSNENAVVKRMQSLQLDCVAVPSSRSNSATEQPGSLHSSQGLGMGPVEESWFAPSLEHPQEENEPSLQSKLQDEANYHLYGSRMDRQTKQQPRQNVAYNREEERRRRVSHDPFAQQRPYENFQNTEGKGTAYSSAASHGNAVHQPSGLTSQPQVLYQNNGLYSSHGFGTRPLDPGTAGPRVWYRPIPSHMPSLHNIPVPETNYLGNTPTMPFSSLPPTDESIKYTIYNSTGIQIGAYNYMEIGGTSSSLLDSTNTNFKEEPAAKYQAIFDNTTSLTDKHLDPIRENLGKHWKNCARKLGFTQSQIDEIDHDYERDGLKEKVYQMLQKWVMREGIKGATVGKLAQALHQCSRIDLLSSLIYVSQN

[16] = target: Receptor-interacting serine/threonine-protein kinase 3 (Homo sapiens, UniProt Q9Y572); test: Binding affinity to RIPK3 (unknown origin) assessed as dissociation constant by kinomescan assay
Receptor-interacting serine/threonine-protein kinase 3, sequence (Q9Y572 whole entry): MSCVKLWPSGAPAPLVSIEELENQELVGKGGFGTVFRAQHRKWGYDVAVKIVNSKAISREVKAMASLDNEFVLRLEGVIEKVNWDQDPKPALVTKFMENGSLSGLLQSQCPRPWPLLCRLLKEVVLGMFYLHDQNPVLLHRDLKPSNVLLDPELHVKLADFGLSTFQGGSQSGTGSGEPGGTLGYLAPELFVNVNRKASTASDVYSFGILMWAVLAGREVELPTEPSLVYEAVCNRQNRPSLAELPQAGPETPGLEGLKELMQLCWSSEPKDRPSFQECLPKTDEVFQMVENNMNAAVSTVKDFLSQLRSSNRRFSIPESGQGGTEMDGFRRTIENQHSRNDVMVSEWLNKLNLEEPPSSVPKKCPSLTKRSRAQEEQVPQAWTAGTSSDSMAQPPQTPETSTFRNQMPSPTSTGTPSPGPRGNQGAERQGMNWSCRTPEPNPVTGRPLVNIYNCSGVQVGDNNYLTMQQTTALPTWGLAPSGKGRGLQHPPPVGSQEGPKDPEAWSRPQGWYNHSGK

Receptor-interacting serine/threonine-protein kinase 2, sequence (O43353 whole entry): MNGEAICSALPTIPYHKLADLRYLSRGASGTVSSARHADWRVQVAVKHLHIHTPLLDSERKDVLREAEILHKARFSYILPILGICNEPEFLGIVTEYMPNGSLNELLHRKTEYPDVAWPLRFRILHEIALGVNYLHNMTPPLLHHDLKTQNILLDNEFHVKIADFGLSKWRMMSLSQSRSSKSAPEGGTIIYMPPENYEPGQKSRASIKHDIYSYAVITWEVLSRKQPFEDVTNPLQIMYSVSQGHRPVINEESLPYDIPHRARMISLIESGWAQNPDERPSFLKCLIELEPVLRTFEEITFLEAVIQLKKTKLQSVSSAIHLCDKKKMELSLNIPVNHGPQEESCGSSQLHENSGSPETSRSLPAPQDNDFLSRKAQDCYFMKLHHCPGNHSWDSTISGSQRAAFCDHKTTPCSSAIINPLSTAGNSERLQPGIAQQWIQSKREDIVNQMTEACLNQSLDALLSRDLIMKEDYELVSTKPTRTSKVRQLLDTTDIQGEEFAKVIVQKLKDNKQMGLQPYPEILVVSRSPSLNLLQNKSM

`Cc1ccc(O)cc1Nc1ncnc2cc3c(cc12)S(=O)(=O)C=C3C1CC1` gave a Kd [1] of 70 nM.

`Cc1[nH]nc(Nc2ncnc3cc4c(cc23)S(=O)(=O)C=C4C2CC2)c1C` showed a Kd [1] of 10 nM.

Compound `O=S1(=O)C=C(C2CC2)c2cc3ncnc(Nc4cc(O)ccc4F)c3cc21` has a Kd [1] of 14 nM.

Work on `CC1=Cc2cc3nc(C)nc(Nc4ccc5scnc5c4)c3cc2S1(=O)=O` yielded a Kd [1] of 685 nM.

For `O=S1(=O)C=C(C2CC2)c2cc3ncnc(Nc4ccc5nn[nH]c5c4)c3cc21`, the Kd [1] was 10 nM.

Work on `O=S1(=O)C=C(c2ccc(F)cc2)c2cc3ncnc(Nc4ccc5scnc5c4)c3cc21` yielded a Kd [1] of 545 nM.

Work on `CCOC1=CS(=O)(=O)c2cc3c(Nc4ccc5scnc5c4)ncnc3cc21` yielded a Kd [1] of 5.9 nM, a half-life [2] of 189 min and a half-life [3] of 142 min. For the same compound, the half-life [4] was 62.7 min, the half-life [5] was 25.9 min and the half-life [6] was 38 min. For the same compound, the CLint scaled [7] was 9.19 mL/min/kg, the CLint scaled [8] was 17.5 mL/min/kg and the CLint scaled [9] was 87 mL/min/kg. The CLint scaled [10] was 133 mL/min/kg, the CLint scaled [11] was 53.3 mL/min/kg and the inhibition at 10 µM (CYP1A2) was 18.1%. For the same compound, the inhibition at 10 µM (CYP2C9) was 10.7%, the inhibition at 10 µM (CYP2C19) was 16.6% and the inhibition at 10 µM (CYP2D6) was -23.2%. For the same compound, the inhibition at 10 µM (CYP3A4 [12]) was 0%, the inhibition at 10 µM (CYP3A4 [13]) was -0.93% and the IC50 [14] was > 10000 nM. The IC50 (THP-1) was 1.99 nM, the Kd [15] was > 30000 nM and the Kd [16] was 43 nM.

Compound `O=S1(=O)C=C(c2ccccc2)c2cc3ncnc(Nc4ccc5scnc5c4)c3cc21` has a Kd [1] of 109 nM.

Compound `CC1=Cc2cc3ncnc(Nc4ccc5scnc5c4)c3cc2S1(=O)=O` has a Kd [1] of 55 nM.

For `O=S1(=O)C=C(C2CC2)c2cc3ncnc(Nc4n[nH]c5ccc(F)cc45)c3cc21`, the Kd [1] was 10 nM.

For `CC(C)(C)S(=O)(=O)c1cc2c(Nc3ccc4scnc4c3)ncnc2cc1OCCOP(=O)(O)O`, the Kd [1] was 0.78 nM and the IC50 (THP-1) was 1.34 nM.

In the case of `O=S1(=O)C=C(C2CC2)c2cc3ncnc(Nc4ccc5nc[nH]c5c4)c3cc21`, the Kd [1] is reported as 325 nM.

Compound `CCOC1=C(C)S(=O)(=O)c2cc3c(Nc4ccc5scnc5c4)ncnc3cc21` has a Kd [1] of 24 nM.

`O=S1(=O)C=C(C2CC2)c2cc3ncnc(Nc4ccc5scnc5c4)c3cc21` showed a Kd [1] of 3.3 nM, a half-life [2] of 64.3 min and a half-life [3] of 61 min. The half-life [4] was 15.9 min, the half-life [5] was 10.8 min and the half-life [6] was 28.5 min. For the same compound, the CLint scaled [7] was 27 mL/min/kg, the CLint scaled [8] was 40.8 mL/min/kg and the CLint scaled [9] was 344 mL/min/kg. The CLint scaled [10] was 320 mL/min/kg, the CLint scaled [11] was 71 mL/min/kg and the inhibition at 10 µM (CYP1A2) was 19.9%. For the same compound, the inhibition at 10 µM (CYP2C9) was 11.9%, the inhibition at 10 µM (CYP2C19) was 40.6% and the inhibition at 10 µM (CYP2D6) was -13.6%. For the same compound, the inhibition at 10 µM (CYP3A4 [12]) was 14.9% and the inhibition at 10 µM (CYP3A4 [13]) was 14.3%.

With `O=S1(=O)C=C(C2CC2)c2cc3ncnc(Nc4ccc5cc[nH]c5c4)c3cc21` the Kd [1] was 1200 nM.

In the case of `CC1=CS(=O)(=O)c2cc3c(Nc4ccc5scnc5c4)ncnc3cc21`, the Kd [1] is reported as 14 nM.

With `CC1=C(C)S(=O)(=O)c2cc3c(Nc4ccc5scnc5c4)ncnc3cc21` the Kd [1] was 8.2 nM, the half-life [2] was 53 min and the half-life [3] was 59 min. It also gave a half-life [4] of 23.7 min, a half-life [5] of 4.61 min and a half-life [6] of 20.9 min. The CLint scaled [7] was 32.8 mL/min/kg, the CLint scaled [8] was 42.1 mL/min/kg and the CLint scaled [9] was 230 mL/min/kg. For the same compound, the CLint scaled [10] was 749 mL/min/kg, the CLint scaled [11] was 97 mL/min/kg and the inhibition at 10 µM (CYP1A2) was 14.9%. The inhibition at 10 µM (CYP2C9) was -1.42%, the inhibition at 10 µM (CYP2C19) was 11.5% and the inhibition at 10 µM (CYP2D6) was -15.7%. The inhibition at 10 µM (CYP3A4 [12]) was -3.32% and the inhibition at 10 µM (CYP3A4 [13]) was 6.88%.

Compound `COC1=CS(=O)(=O)c2cc3c(Nc4ccc5scnc5c4)ncnc3cc21` has a Kd [1] of 27 nM.
